Data set [1] deals with mice. Nature of the data set: Writhing test in mice (acetic acid induced writhing), analgesic activity. The class given is in vivo. Conditions: for ED50: Mus musculus, po, 20 min, read-out: Analgesic ED50 Writhing test; for analgesic activity compared with the compounds of the present invention: statement in words, refers to the pharmacological tests of Table 1. As for the experimental part: Writhing test in mice. (SPF females of the strain NMRI/BOM, weighing 20-25 g). The test substance was administered by gavage ½ hour prior to an intraperitoneal injection of acetic acid. The number of writhing movements in 20 minutes was counted.
On the technique in general: An intraperitoneal irritant provokes the stretching counted in writhing tests.

The next data set is described as follows: in vivo. Type of data set: in vivo. Conditions: mouse, in vivo, po, read-out: Acute toxicity LD50.
The nature of data set [2]: Ulcerogenic activity in rats. The conditions noted are these: rat, in vivo, po. As for the experimental part: SPF males of the strain Sprague-Dawley weighing 180-250 g were used. 5 hours after administration by gavage of the test substance the rats were killed by an overdose of ether. The stomachs were removed and opened along the greater curvature. The number of ulcers was assessed and compared to control rats.

The subject of data set [3] is rats. Nature of the data set: Randall-Selitto test in rats (analgesia-meter, brewer's yeast paw), analgesic activity. Type of data set: in vivo. Conditions: Rattus norvegicus, po, read-out: Analgesic ED50 Analgesia-meter. Here is the method:
2. Randall-Selitto test in rats. (SPF males of the strain Sprague-Dawley, weighing 90-100 g). The test was performed on the whole as described by Randall and Selitto: Arch. Int. Pharmacodyn. […] An analgesia-meter of the make Ugo Basile was used and the test substance was administered by gavage 2 hours after injection of a suspension of brewer's yeast into the rat paw.

In data set [4] the test system is rats. Nature of the data set: Test for antiinflammatory activity in rats (carrageenin paw). Type of data set: in vivo. The conditions noted are these: Rattus norvegicus, po, read-out: Antiinflam-matory test ED50. As for the experimental part:
SPF males of the strain Sprague-Dawley, weighing ~ 150 g were used. The test was performed according to Winter et al.: Proc. Soc. […] The test substance was given by gavage 1 hour prior to injection of a carrageenin-suspension into the rat paw.

In another data set the target is PG-synthetase. As to the kind of experiment: Prostaglandin-synthetase inhibition test. The class given is biochemical. Conditions: AA = Arachidonic acid.
Data set [5] concerns mice. Nature of the data set: in vivo. The class given is in vivo. Conditions: statement in words, refers to the pharmacological data of Table 1.
Setting [6] is: mice, by gavage ½ hour prior to intraperitoneal acetic acid, writhing movements in 20 minutes.
Where [7] appears, read: mice, by gavage, observation period 168 hours.
Where [8] appears, read: rats, by gavage 2 hours after brewer's yeast injection into the paw.
[9] abbreviates: rats, by gavage 1 hour prior to carrageenin injection into the paw.
The mark [10] stands for this setting: rats, by gavage, stomachs examined 5 hours after administration, read-out: Ulcerogenic activity ED50.

Like-named read-outs stand apart in the source and are kept apart here. A value given as a limit tells only on which side of the number the result lay.

Consider `COc1ccc(-c2nc(-c3ccc(F)cc3)n(CCC(=O)O)c2-c2ccc(OC)cc2)cc1` [Compound 1, 1-(2-Carboxyethyl)-2-(p-fluorphenyl)-4,5-bis(p-methoxyphenyl)imidazole, reference compound], for which the ED50 (as a rule, the dose that gives a 50% effect, or the effect in half of the subjects) with mice [1] (setting [6]) is greater than 200 mg/kg. Also, in “in vivo” (setting [7]), the LD50 (commonly the dose expected to kill half of the subjects tested) at 168 h was greater than 2000 mg/kg.

As for `COc1ccc(-c2nc(-c3ccccc3F)[nH]c2-c2ccc(OC)cc2)cc1` [Compound 2, 2-(o-Fluorphenyl)-4,5-bis(p-methoxyphenyl)imidazole], the TD50 at 5 h in data set [2] was 590 mg/kg. The ED50 turned out to be 0.3 mg/kg with rats [3] (setting [8]), 130 mg/kg in the data set with rats [4] (setting [9]) and 15 mg/kg in the data set on mice [1] (setting [6]). Besides, the LD50 at 168 h in “in vivo” is greater than 2000 mg/kg.

Consider `COc1ccc(-c2nc(-c3cccc(F)c3)[nH]c2-c2ccc(OC)cc2)cc1` [Compound 3, 2-(m-Fluorphenyl)-4,5-bis(p-methoxyphenyl)imidazole], for which the TD50 at 5 h in data set [2] was determined as 870 mg/kg. In addition, the results for the ED50 in the data set on rats [3] (setting [8]), in the data set on rats [4] (setting [9]) and in the data set on mice [1] (setting [6]) were 0.25 mg/kg, 38 mg/kg and 3.2 mg/kg, respectively. Also, the 50% lethal dose (LD50) at 168 h in the data set “in vivo” is greater than 2000 mg/kg.

In data set [2], `COc1ccc(-c2nc(-c3ccc(F)cc3)[nH]c2-c2ccc(OC)cc2)cc1` [Compound 4, 2-(p-Fluorphenyl)-4,5-bis(p-methoxyphenyl)imidazole] displayed a TD50 at 5 h of 360 mg/kg. For the same compound, at PG-synthetase, the “Inhibition of PG-synthetase IC50” value is 0,18 µg/10 µg AA. Moreover, the ED50 with rats [3] (setting [8]) is 0.3 mg/kg; in the data set on rats [4] (setting [9]) it was 14 mg/kg; in the data set on mice [1] (setting [6]), 5 mg/kg. Further, the 50% lethal dose (LD50) at 168 h in “in vivo” was determined as 1900 mg/kg.

Take `COc1ccc(-c2nc(-c3cccc(F)c3F)[nH]c2-c2ccc(OC)cc2)cc1` [Compound 5, 2-(2,3-Difluorphenyl)-4,5-bis(p-methoxyphenyl) imidazole]: the TD50 at 5 h in data set [2] stood at 800 mg/kg. Also, the “Inhibition of PG-synthetase IC50” value on PG-synthetase is listed as 0,21 µg/10 µg AA. Also, the ED50 with rats [3] (setting [8]) is 0.55 mg/kg; in the data set on rats [4] (setting [9]), 120 mg/kg; in the data set on mice [1] (setting [6]), 4.6 mg/kg. Besides, the LD50 at 168 h in “in vivo” is greater than 2000 mg/kg.

With `COc1ccc(-c2nc(-c3ccc(F)cc3F)[nH]c2-c2ccc(OC)cc2)cc1` [Compound 6, 2-(2,4-Difluorphenyl)-4,5-bis(p-methoxyphenyl)imidazole], the TD50 at 5 h in data set [2] was greater than 300 mg/kg. At PG-synthetase, the “Inhibition of PG-synthetase IC50” value is 0,27 µg/10 µg AA. In addition, the 50% effective dose (ED50) in the data set on rats [3] (setting [8]) was found to be 0.8 mg/kg; in the data set with rats [4] (setting [9]) it was 47 mg/kg; in the data set on mice [1] (setting [6]), 4 mg/kg. Besides, in the data set “in vivo”, the median lethal dose (LD50) at 168 h was greater than 2000 mg/kg.

For the compound `COc1ccc(-c2nc(-c3cc(F)ccc3F)[nH]c2-c2ccc(OC)cc2)cc1` [Compound 7, 2-(2,5-Difluorphenyl)-4,5-bis(p-methoxyphenyl)imidazole], the TD50 at 5 h in data set [2] turned out to be 1000 mg/kg. The “Inhibition of PG-synthetase IC50” value at PG-synthetase is 1,71 µg/10 µg AA. Besides, the ED50 in the data set on rats [3] (setting [8]) was 0.55 mg/kg; in the data set on rats [4] (setting [9]) it was 110 mg/kg; in the data set on mice [1] (setting [6]), 16 mg/kg. The LD50 at 168 h in the data set “in vivo” was greater than 2000 mg/kg.

In the case of `COc1ccc(-c2nc(-c3c(F)cccc3F)[nH]c2-c2ccc(OC)cc2)cc1` [Compound 8, 2-(2,6-Difluorphenyl)-4,5-bis(p-methoxyphenyl)imidazole], the TD50 at 5 h in data set [2] is greater than 300 mg/kg. The “Inhibition of PG-synthetase IC50” value on PG-synthetase is on record as 0,13 µg/10 µg AA. For the same compound, the figures for the ED50 in the data set with rats [3] (setting [8]), in the data set on rats [4] (setting [9]) and in the data set on mice [1] (setting [6]) were 0.55 mg/kg, 300 mg/kg and 6.8 mg/kg, respectively. For the same compound, in “in vivo”, the median lethal dose (LD50) at 168 h is greater than 2000 mg/kg.

With `COc1ccc(-c2nc(-c3ccc(F)c(F)c3)[nH]c2-c2ccc(OC)cc2)cc1` [Compound 9, 2-(3,4-Difluorphenyl)-4,5-bis(p-methoxyphenyl)imidazole], the 50% effective dose (ED50) is 15 mg/kg in the data set on rats [4] (setting [9]) and 1.9 mg/kg with mice [1] (setting [6]). Also, the 50% lethal dose (LD50) at 168 h in the data set “in vivo” (setting [7]) is greater than 2000 mg/kg.

For the compound `COc1ccc(-c2nc(-c3cc(F)cc(F)c3)[nH]c2-c2ccc(OC)cc2)cc1` [Compound 10, 2-(3,5-Difluorphenyl)-4,5-bis(p-methoxyphenyl)imidazole], the TD50 at 5 h in data set [2] turned out to be 780 mg/kg. Further, the values for the ED50 in the data set with rats [3] (setting [8]), in the data set with rats [4] (setting [9]) and in the data set on mice [1] (setting [6]) were 0.45 mg/kg, 150 mg/kg and 10 mg/kg, respectively.

In turn, `COc1ccc(-c2nc(C(F)(F)F)[nH]c2-c2ccc(OC)cc2)cc1` [Compound 11, 2-Trifluormethyl-4,5-bis(p-methoxyphenyl)imidazole, reference compound] displayed a TD50 at 5 h in data set [2] of 450 mg/kg. Besides, the figures for the ED50 in the data set on rats [4] (setting [9]) and with mice [1] (setting [6]) were 25 mg/kg and 75 mg/kg, respectively. In addition, the “analgesic activity compared with the compounds of the present invention” value in the data set with mice [1] is “weaker analgesic activity”. In addition, in the data set on mice [5], the “toxicity compared with the compounds of the present invention” value is given as “higher toxicity”.

As to `COc1ccc(-c2nc(C(C)C)[nH]c2-c2ccc(OC)cc2)cc1` [Compound 12, 2-Isopropyl-4,5-bis(p-methoxyphenyl)imidazole, reference compound], in the data set with mice [1] (setting [6]), the 50% effective dose (ED50) was 200 mg/kg. Besides, the “analgesic activity compared with the compounds of the present invention” value with mice [1] is on record as “much weaker analgesic activity”. Also, in “in vivo” (setting [7]), the LD50 at 168 h was greater than 2000 mg/kg.

With `COc1ccc2c(c1)c(CC(=O)O)c(C)n2C(=O)c1ccc(Cl)cc1` [Compound 13, Indomethacin, reference compound], the TD50 at 5 h in data set [2] (setting [10]) stood at 9.7 mg/kg. For the same compound, the “Inhibition of PG-synthetase IC50” value at PG-synthetase was 0,65 µg/10 µg AA. In addition, the ED50 with rats [3] (2 h) is 0.36 mg/kg; in the data set with rats [4], 28 mg/kg; in the data set with mice [1], 8 mg/kg. In “in vivo” (setting [7]), the LD50 at 168 h amounted to 21 mg/kg.

Regarding `COc1ccc2cc([C@H](C)C(=O)O)ccc2c1` [Compound 14, Naproxen, reference compound], in data set [2] (setting [10]), the TD50 at 5 h was 19.5 mg/kg. Besides, on PG-synthetase, the “Inhibition of PG-synthetase IC50” value was 0,49 µg/10 µg AA. Moreover, the ED50 in the data set on rats [3] (setting [8]) was 1.6 mg/kg; in the data set with rats [4] (setting [9]), 10 mg/kg.

As to `CC(=O)Oc1ccccc1C(=O)O` [Compound 15, Acetyl salicylic acid, reference compound], the TD50 at 5 h in data set [2] (setting [10]) is 340 mg/kg. The “Inhibition of PG-synthetase IC50” value on PG-synthetase is recorded as 7,61 µg/10 µg AA. Moreover, the ED50 in the data set on rats [4] came to 350 mg/kg; with mice [1] it was 100 mg/kg. Also, in “in vivo” (setting [7]), the LD50 at 168 h worked out at 1700 mg/kg.

(Values after patent EP0005219A1, “Arylimidazoles, their synthesis and pharmaceutical or veterinary preparations containing them” (A/S Dumex (Dumex Ltd.), priority 1978, dated 1979).)
